# In the supplement of paper PMC13380429:
# How the values were obtained:
# Conditions in all cases: 72 h
# Caco-2 [1] = test: cell viability relative to DMSO; higher = less toxic
# Calu-3 [2] = test: as above
# HepG2 [3] = test: as above
# U2OS [4] = test: as above
# Vero E6 [5] = test: as above
# Caco-2 [6] = test: relative viability EC50 (midpoint between 100% and the lowest measured viability); higher = less toxic
# Calu-3 [7] = test: as above
# HepG2 [8] = test: as above
# U2OS [9] = test: as above
# Vero E6 [10] = test: as above
# Caco-2 [11] = test: drug sensitivity score (DSS) for viability; higher = more toxic; extreme values may be limits of the assay
# Calu-3 [12] = test: as above
# HepG2 [13] = test: as above
# U2OS [14] = test: as above
# Vero E6 [15] = test: as above
Structure (SMILES),cell viability (Caco-2 [1]; 1 nM) [%],cell viability (Caco-2 [1]; 10 nM) [%],cell viability (Caco-2 [1]; 100 nM) [%],cell viability (Caco-2 [1]; 1000 nM) [%],cell viability (Caco-2 [1]; 10000 nM) [%],cell viability (Calu-3 [2]; 1 nM) [%],cell viability (Calu-3 [2]; 10 nM) [%],cell viability (Calu-3 [2]; 100 nM) [%],cell viability (Calu-3 [2]; 1000 nM) [%],cell viability (Calu-3 [2]; 10000 nM) [%],cell viability (HepG2 [3]; 1 nM) [%],cell viability (HepG2 [3]; 10 nM) [%],cell viability (HepG2 [3]; 100 nM) [%],cell viability (HepG2 [3]; 1000 nM) [%],cell viability (HepG2 [3]; 10000 nM) [%],cell viability (U2OS [4]; 1 nM) [%],cell viability (U2OS [4]; 10 nM) [%],cell viability (U2OS [4]; 100 nM) [%],cell viability (U2OS [4]; 1000 nM) [%],cell viability (U2OS [4]; 10000 nM) [%],cell viability (Vero E6 [5]; 1 nM) [%],cell viability (Vero E6 [5]; 10 nM) [%],cell viability (Vero E6 [5]; 100 nM) [%],cell viability (Vero E6 [5]; 1000 nM) [%],cell viability (Vero E6 [5]; 10000 nM) [%],relative viability EC50 (Caco-2 [6]) [µM],relative viability EC50 (Calu-3 [7]) [µM],relative viability EC50 (HepG2 [8]) [µM],relative viability EC50 (U2OS [9]) [µM],relative viability EC50 (Vero E6 [10]) [µM],drug sensitivity score (Caco-2 [11]),drug sensitivity score (Calu-3 [12]),drug sensitivity score (HepG2 [13]),drug sensitivity score (U2OS [14]),drug sensitivity score (Vero E6 [15])
CC(C)(C)c1ccc(S(=O)(=O)/C=C/C#N)cc1 [BAY-11-7085],101,82.2,83.6,91.8,37.8,105,103,96,97,49.8,96.7,100,98.7,85.2,-0.4,101,99,102,89.1,-0.4,92.7,95.9,91.8,90.3,-0.3,2.1,2.69,2,2.26,2.35,4.8,3.1,8,7.4,7.1
Cc1oc2nc3c(c(NC(=O)CN4CCCC4=O)c2c1C)CCCC3 [BCI-540],94.4,99.2,99.8,103,101,90.2,101,94.4,104,107,88.7,100,98.5,98,94.3,100,99.8,97.8,105,101,93.2,93.8,99.5,92.5,110,> 10,> 10,> 10,> 10,> 10,0,0,0,0,0
CC(C)(C)c1cc(O)c(C(C)(C)C)cc1O [BHQ],101,96.9,102,95.7,88.9,109,94,93.1,97.9,108,102,95.8,92.4,97.9,95.5,101,97.2,103,99.1,99.8,98.3,96,103,96.6,91.8,> 10,> 10,> 10,> 10,> 10,0.1,0,0,0,0
Cc1cc(C(=CNc2ccc(Cl)cc2)C(=O)Nc2ccc(Cl)cc2)on1 [CCMI],98.4,93,104,88,100,104,100,105,98.9,105,95.6,96.3,96.9,107,95.7,103,93.3,97.8,102,99.4,98.7,101,98.7,96.6,98.1,> 10,> 10,> 10,> 10,> 10,0,0,0,0,0
CCOC(=O)Nc1ccc2c(c1)N(C(=O)CN(CC)CC)c1ccccc1CC2 [CINPA-1],103,96.1,100,100,92.2,109,99.6,99.5,91.9,107,97.7,106,99.1,96.7,93.7,105,102,99.5,97.6,99.1,95.2,106,96.6,100,91,> 10,> 10,> 10,> 10,> 10,0,0,0,0,0
C=CC(=O)Nc1cccc(Nc2nc(Nc3ccc(Oc4ccnc(C(=O)NC)c4)cc3)ncc2F)c1 [CNX-774],98.7,105,103,90.4,30,92.8,102,99.6,96.3,86.6,98.6,104,110,91.4,31.8,92.4,111,98.3,83.9,32.9,98.1,98.1,103,90.7,26.9,2.07,> 10,2.15,1.58,2.14,5.5,0.4,5.2,6.2,5.6
CCCCNc1nc(N)c2[nH]c(=O)n(Cc3ccc(OCCN(C)C)nc3)c2n1 [DSR-6434],93.3,98.6,92.7,100,95.9,90.4,104,95.2,89.6,101,103,102,91,94.4,97.1,96.9,97.9,99,101,97,97.6,99.1,98.8,93.6,96.3,> 10,> 10,> 10,> 10,> 10,0,0,0,0,0
